Experimental data reported in US11179391B2, “Compound with kinase inhibitory activity and preparation method and use thereof” (priority 2017, dated 2021).

Assays:
[1] = test system: Human leukemia MV4-11 cells; assay: Pharmacodynamic study on mouse MV4-11 model (subcutaneous xenograft); assay type: in vivo, BALB/c nude mice; conditions: for tumor inhibition effect compared with Abemaciclib (in words) / Tumor volume (day 0) / Tumor volume (day 21) / T/C relative tumor proliferation rate / TGI tumor growth inhibition rate: MV4-11 model, 50 mg/kg PO × 21 days; for Tumor volume (day 0): baseline at start of dosing; for Tumor volume (day 0) / Tumor volume (day 21) / T/C relative tumor proliferation rate / TGI tumor growth inhibition rate: mesylate; for T/C relative tumor proliferation rate / TGI tumor growth inhibition rate: day 21; for inhibitory effect on the tumor growth (in words): MV4-11 nude mouse model, 50 mg/kg, continuous PO administration for 21 days
CDK2/CycA2 = CDK2/CycA2 (Homo sapiens, UniProt P24941); assay: Determination of CDK activity (Caliper mobility shift, FAM-P8 peptide): CDK2; assay type: biochemical; conditions: CDK2/CycA2; read-out: CDK2 enzymatic inhibitory activity (IC50)
CDK4/CycD3 = CDK4/CycD3 (Homo sapiens, UniProt P11802); assay: Determination of CDK activity (Caliper mobility shift, FAM-P8 peptide): CDK4; assay type: biochemical; conditions: CDK4/CycD3; read-out: CDK4 enzymatic inhibitory activity (IC50)
Chain of CDK4/CycD3 (P11802 whole entry): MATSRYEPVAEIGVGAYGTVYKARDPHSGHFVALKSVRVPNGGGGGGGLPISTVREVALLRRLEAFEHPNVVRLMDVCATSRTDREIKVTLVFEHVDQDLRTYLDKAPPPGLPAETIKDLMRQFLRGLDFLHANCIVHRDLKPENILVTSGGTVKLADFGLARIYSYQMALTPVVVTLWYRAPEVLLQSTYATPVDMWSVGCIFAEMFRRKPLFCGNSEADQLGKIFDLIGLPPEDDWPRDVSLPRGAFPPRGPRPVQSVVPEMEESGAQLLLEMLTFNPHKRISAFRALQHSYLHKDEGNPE
Chain of CDK4/CycD3 (P30281 whole entry partner): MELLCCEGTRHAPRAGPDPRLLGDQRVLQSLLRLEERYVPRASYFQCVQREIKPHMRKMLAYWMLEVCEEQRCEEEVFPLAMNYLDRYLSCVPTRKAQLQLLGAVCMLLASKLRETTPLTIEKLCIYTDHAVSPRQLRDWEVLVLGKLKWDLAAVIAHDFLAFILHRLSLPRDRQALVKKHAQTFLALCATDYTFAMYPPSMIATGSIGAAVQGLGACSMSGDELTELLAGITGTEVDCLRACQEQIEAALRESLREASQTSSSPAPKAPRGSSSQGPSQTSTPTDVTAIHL
Procedure, shortened: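 GST-CDK4(1-303)/GST-CycD3(1-292) was preincubated with compound for 10 min at room temperature, then FAM-P8 peptide and ATP were added; the reaction ran at 28 °C and was stopped with EDTA-containing stop buffer. Peptide conversion was read by Caliper mobility shift. A 10-point dilution series was fitted for IC50.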

[2] = Pharmacokinetic study in rats; assay type: in vivo, Sprague-Dawley rats; conditions: for F / Cmax / Tmax / clearance / half-life / AUC(0-t): male Sprague-Dawley rats; for F: iv 2 mg/kg and oral 5 mg/kg; for clearance in rat plasma (in words) / half-life in rat plasma (in words) / level of exposure at 24 h in rat plasma (in words): at the dose of 10 mg/kg; for Cmax / Tmax / clearance / half-life / AUC(0-t): rat, plasma, study dosed iv 2 mg/kg and oral 5 mg/kg, route of this parameter not given; for AUC(0-t): read-out: AUC0-24 h
Method: Healthy adult Sprague-Dawley rats, male, 7-10 weeks old, weighing 240-270 g, provided by Beijing Vital River Laboratory Animal Technology Co., Ltd., with an animal certificate number of 1140070278736.
Test compounds of the invention: example 17, 33, 40, and 57.
Intravenous administration solvent system of compounds: 10% (V/V) NMP and 90% (20% (V/V)) SBE-β-CD in 16.667 mM PBS with a concentration of 1.0 mg/mL.
Oral administration solvent system of compounds: pure water system containing 0.1% hydroxyethyl cellulose and 0.5% Tween-80, with a concentration of 1 mg/mL.
Intravenous administration: 3 male Sprague-Dawley rats of each test compound were injected intravenously after fasting overnight, with a dose of 2 mg/kg, and the dosing volume was 2 mL/kg. […]
Before the administration, and after administration of 0.0833 (iv), 0.25, 0.5, 1, 2, 4, 8, 12, and 24 h, the jugular vein puncture (approximately 0.15 mL per time point) of each animal was performed by collecting blood from polypropylene tubes. All blood samples were transferred to pre-cooled EDTA-K2 test tubes or pre-cooled plastic microcentrifuge tubes containing 3 μL of 0.5 M EDTA-K2 as anticoagulant and placed on wet ice until centrifugation. Each collected blood was centrifuged at 4° C. for 15 minutes, and plasma was collected. All plasma would be stored in a freezer at about −80° C. until LCMS/MS detection.

| SMILES | tumor inhibition effect compared with Abemaciclib (in words) [1] | Tumor volume (day 0) [1] [mm^3] | Tumor volume (day 21) [1] [mm^3] | T/C relative tumor proliferation rate [1] [%] | TGI tumor growth inhibition rate [1] [%] | inhibitory effect on the tumor growth (in words) [1] | IC50 (CDK2/CycA2) [nM] | IC50 (CDK4/CycD3) [nM] | F [2] [%] | clearance in rat plasma (in words) [2] | half-life in rat plasma (in words) [2] | level of exposure at 24 h in rat plasma (in words) [2] | Cmax [2] [ng/mL] | Tmax [2] [h] | clearance [2] [mL/min/kg] | half-life [2] [h] | AUC(0-t) [2] [ng·h/mL] |
| --- | --- | --- | --- | --- | --- | --- | --- | --- | --- | --- | --- | --- | --- | --- | --- | --- | --- |
| CCN1CCC(C(C)c2ccc(Nc3ncc(F)c(-c4cc(F)c5nc(C)n(C(C)C)c5c4)n3)nc2)CC1 (single isomer, unassigned) [Example 17, (R or S)—N-(5-(1-(1-ethylpiperidin-4-yl)ethyl)pyridin-2-yl)-5-fluoro-4-(4-fluoro-1-isopropyl-2-methyl-1H-benzo[d]imidazol-6-yl) pyrimidin-2-amine] | equivalent to that of positive control compound Abemaciclib | 158 | 463 | 38 | 62 | good inhibitory effect | < 100 | < 100 | 66.9 | lower clearance | longer half-life | high level of exposure | 225 | 8 | 14.1 | 9.38 | 3580 |
| CCN1CCC(=Cc2ccc(Nc3ncc(F)c(-c4cc(F)c5nc(C)n(C(C)C)c5c4)n3)nc2)CC1 [Example 57, N-(5-((1-ethylpiperidin-4-ylidene)methyl)pyridin-2-yl)-5-fluoro-4-(4-fluoro-1-isopropyl-2-methyl-1H-benzo[d]imidazol-6-yl)pyrimidin-2-amine] | equivalent to that of positive control compound Abemaciclib | 158 | 491 | 41 | 59 | good inhibitory effect | < 100 | < 100 | 57.6 | lower clearance | longer half-life | high level of exposure | 205 | 8 | 14.8 | 11.7 | 3080 |
